From patent US12227488B2, “Small molecule degraders of Helios and methods of use” (DANA-FARBER CANCER INSTITUTE, INC., priority 2018, dated 2025)

What was measured:
[1] = molecular target: T1, Helios (Homo sapiens, UniProt Q96SW2+Q9UKS7); assay: Immunoblot for Helios in Jurkat cells; assay type: cell-based
T1 construct: endogenous in cells; host or cells: Jurkat
Procedure: (§1) A focused library of imide analogs was synthesized and assessed for their ability to induce dimerization between CRBN and Helios in a time-resolved fluorescence energy transfer (TR-FRET) assay (FIG. 1A).
(§2) Cells were lysed in M-PER buffer (Thermo Scientific) containing protease/phosphatase inhibitor cocktail (Roche). Protein concentration was measured using a BCA assay (Pierce™) Equivalent amounts of each sample were loaded on 4-12% Bis-Tris gels (Invitrogen™) transferred to nitrocellulose membranes, and immunoblotted with the indicated antibodies. IRDye®800-labeled goat anti-rabbit IgG and IRDye®680-labeled goat anti-mouse IgG (LI-COR®) secondary antibodies were purchased from LI-COR®, and membranes were detected on an Odyssey® detection system (LI-COR® Biosciences).
as §2, with “Odyssey” for “Odyssey®”

[2] = molecular target: T2, Ikaros (Homo sapiens, UniProt Q13422+Q96SW2); assay: Immunoblot for Ikaros in Jurkat cells; assay type: cell-based; conditions: 4 h treatment
T2 construct: endogenous in cells; host or cells: Jurkat
Procedure: as §1, §2

[3] = molecular target: T3, IKZF1 (Homo sapiens, UniProt Q13422); assay: Cellular degradation assay, eGFP-IKZF1Δ fusion with mCherry reporter in Flp-In 293 cells; assay type: cell-based; conditions: for IKZF1 GFP/RFP Relative Abundance: 5 h incubation, n=1
T3 construct: expressed in transfected cells; host or cells: Flp-In 293
Outline: (§3)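 Flp-In 293 cells stably expressing eGFP-tagged degron fusions with P2A-mCherry reporter were treated with compound titrations (0.5% DMSO) for 5 hours. Imaging quantified GFP-positive/mCherry-positive cell fraction per well; DC50 at 5 h from nonlinear variable-slope fit.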

[4] = molecular target: T4, CRBN and Helios (IKZF2) (Homo sapiens, UniProt Q96SW2+Q9UKS7); assay: TR-FRET dimerization assay (CRBN-IKZF2 ternary complex formation); assay type: binding; conditions: for TR-FRET-IKZF2 (Normalized to CC-885): n=1
T4 construct: His (N); Strep (N)
Outline: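 BODIPY-labeled DDB1ΔB-CRBN and in vitro biotinylated IKZF2 were treated with increasing compound concentrations plus tracer Terbium-Streptavidin and incubated 15 min at rt. Recruitment was quantified as the 520/490 nm TR-FRET ratio; values are single measurements (n=1), each averaged from at least three technical replicates.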

[5] = molecular target: T5, GSPT1 (Homo sapiens, UniProt P15170+Q96SW2); assay: Cellular degradation assay, eGFP-GSPT1 fusion with mCherry reporter in Flp-In 293 cells; assay type: cell-based; design: expressed in transfected cells; host or cells: Flp-In 293; conditions: half degradation at 5 h (DC50,5 h); triplicate, 11 point dose response
Outline: as §3

[6] = test system: IKZF2; assay: Cellular degradation assay, eGFP-IKZF2Δ fusion with mCherry reporter in Flp-In 293 cells; assay type: cell-based; conditions: for IKZF2 GFP/RFP Relative Abundance: 5 h incubation, n=1
Outline: as §3

[7] = molecular target: T5, GSPT1; assay: Immunoblot for GSPT1 in Jurkat cells; assay type: cell-based; design: expressed in transfected cells; conditions: wildtype or Crbn−/− Jurkat cells, 4 h treatment
Procedure: as §1, §2

[8] = molecular target: T6, Ikaros (Mus musculus, UniProt Q03267+Q8C7D2, I391V); assay: Flow cytometry of Ikaros in splenic T cell subpopulations from Crbn^I391V/I391V mice; assay type: cell-based, murine; conditions: 1 μM, 16 h
T6 construct: from tissue; host or cells: spleen (T cell subpopulations) of Crbn I391V/I391V mice
Procedure: (§4) FIG. 8A-FIG. 8B are a series of graphs depicting levels of Ikaros and Helios that were assessed by flow cytometry. […] FIG. 8B depicts levels of Ikaros and Helios of splenic T cell subpopulations from Crbn^I391V/I391V mice that were treated with 1 μM of indicated compounds for 16 h.
(§5) Splenocytes were fixed/permeabilized and stained with fluorochrome-coupled antibodies. FACS plots of murine splenocytes were stained for TCRβ, CD4, CD8, and FoxP3 (FIG. 8A).

[9] = molecular target: T7, Helios (Mus musculus, UniProt P81183+Q8C7D2, I391V); assay: Flow cytometry of Helios in splenic T cell subpopulations from Crbn^I391V/I391V mice; assay type: cell-based, murine; conditions: 1 μM, 16 h
T7 construct: from tissue; host or cells: spleen (T cell subpopulations / CD4+ CD25+ Tregs) of Crbn I391V/I391V mice
Procedure: as §4, §5

[10] = molecular target: T7, Helios; assay: Helios levels in isolated Crbn^I391V/I391V Tregs; assay type: cell-based, murine; conditions: 2 μM, IL-2 and IL-4, 4 days
Procedure: (§6) FIG. 9A-FIG. 9C are a series of graphs showing that Helios degradation in Tregs permits IFNγ production. Isolated Crbn^I391V/I391V Tregs were treated with 2 μM of compound 69, 5 ng/mL IL-2, and 20 ng/mL IL-4 for 4 days and then restimulated with PMA/ionomycin for 5 h. […] FIG. 9B is a bar graph showing the percent increase of IFNγ with treatment of compound 69.
(§7) Foxp3+ regulatory T cells were isolated by sorting for CD4+ CD25+ T cells from Crbn^I391V/I391V spleens, treated with 2 μM of compound 69, 5 ng/mL IL-2, and 20 ng/mL IL4 for 4 days and then restimulated with PMA/ionomycin for 5 h. Cells were then fixed/permeabilized and stained with fluorochrome-coupled antibodies. […] FIG. 9B is a bar graph showing the percent increase of IFNγ with treatment of compound 69.

[11] = test system: Foxp3+ regulatory T cells; assay: IFNγ production of isolated Crbn^I391V/I391V Tregs after PMA/ionomycin restimulation; assay type: cell-based, murine; conditions: 2 μM, 4 days, restimulated with PMA/ionomycin 5 h
Procedure: as §6, §7

[12] = compound concentration 2.00E−05
[13] = compound concentration 2.00E−06
[14] = compound concentration 2.00E−07
[15] = half degradation at 5 h (DC50,5 h), triplicate, 11 point dose response

T3 sequence (Q13422 83-213 isoform Q13422-7 limits assumed): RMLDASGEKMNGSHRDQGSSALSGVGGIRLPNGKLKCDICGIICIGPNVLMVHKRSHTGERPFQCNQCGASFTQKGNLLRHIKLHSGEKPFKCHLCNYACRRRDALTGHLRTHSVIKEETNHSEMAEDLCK
T3 sequence (Q96SW2 whole entry partner, the tested form may be a part): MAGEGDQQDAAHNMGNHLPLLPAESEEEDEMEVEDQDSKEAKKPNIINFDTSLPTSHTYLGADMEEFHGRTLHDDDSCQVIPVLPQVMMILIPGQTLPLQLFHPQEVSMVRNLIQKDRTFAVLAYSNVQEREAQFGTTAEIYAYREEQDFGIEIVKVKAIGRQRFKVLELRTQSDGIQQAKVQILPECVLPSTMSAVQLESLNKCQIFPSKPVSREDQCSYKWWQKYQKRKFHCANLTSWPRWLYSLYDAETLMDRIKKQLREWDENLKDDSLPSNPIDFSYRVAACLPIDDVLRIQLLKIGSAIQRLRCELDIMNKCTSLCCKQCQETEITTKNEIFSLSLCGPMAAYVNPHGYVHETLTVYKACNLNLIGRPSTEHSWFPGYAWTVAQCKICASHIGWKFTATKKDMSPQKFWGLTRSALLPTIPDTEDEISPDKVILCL
T3 sequence (Q16531 2-1140 partner limits assumed): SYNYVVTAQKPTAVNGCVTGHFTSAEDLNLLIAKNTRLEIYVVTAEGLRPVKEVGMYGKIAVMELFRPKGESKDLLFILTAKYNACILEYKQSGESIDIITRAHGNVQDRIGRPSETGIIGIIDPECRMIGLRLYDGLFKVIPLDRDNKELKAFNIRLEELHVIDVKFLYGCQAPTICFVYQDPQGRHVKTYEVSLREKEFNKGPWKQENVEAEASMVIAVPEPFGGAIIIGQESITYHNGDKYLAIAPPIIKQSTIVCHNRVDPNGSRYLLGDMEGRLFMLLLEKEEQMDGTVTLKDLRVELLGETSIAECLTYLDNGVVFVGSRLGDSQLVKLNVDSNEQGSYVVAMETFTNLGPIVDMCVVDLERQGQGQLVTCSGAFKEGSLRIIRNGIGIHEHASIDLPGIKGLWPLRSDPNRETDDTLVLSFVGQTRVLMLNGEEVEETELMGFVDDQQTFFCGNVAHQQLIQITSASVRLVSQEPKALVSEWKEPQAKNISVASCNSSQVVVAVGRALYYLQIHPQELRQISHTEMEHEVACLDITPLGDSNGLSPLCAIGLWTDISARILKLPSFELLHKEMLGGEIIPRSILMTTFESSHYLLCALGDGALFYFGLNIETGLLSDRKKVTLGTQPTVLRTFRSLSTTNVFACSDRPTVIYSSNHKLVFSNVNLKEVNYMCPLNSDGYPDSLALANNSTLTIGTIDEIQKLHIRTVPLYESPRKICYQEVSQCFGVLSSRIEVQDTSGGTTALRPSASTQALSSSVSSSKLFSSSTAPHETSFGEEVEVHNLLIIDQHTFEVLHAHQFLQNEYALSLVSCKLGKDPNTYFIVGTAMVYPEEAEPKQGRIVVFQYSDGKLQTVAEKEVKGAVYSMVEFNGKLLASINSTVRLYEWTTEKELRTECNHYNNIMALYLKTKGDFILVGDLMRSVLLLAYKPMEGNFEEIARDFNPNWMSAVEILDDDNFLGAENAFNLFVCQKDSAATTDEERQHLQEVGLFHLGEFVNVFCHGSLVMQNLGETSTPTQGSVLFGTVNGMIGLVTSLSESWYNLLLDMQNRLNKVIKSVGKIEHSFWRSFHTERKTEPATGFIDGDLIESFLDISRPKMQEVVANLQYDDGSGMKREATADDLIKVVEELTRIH
T4 sequence (Q96SW2 whole entry): as the sequence (Q96SW2 whole entry partner, the tested form may be a part) above
T4 sequence (Q9UKS7 whole entry): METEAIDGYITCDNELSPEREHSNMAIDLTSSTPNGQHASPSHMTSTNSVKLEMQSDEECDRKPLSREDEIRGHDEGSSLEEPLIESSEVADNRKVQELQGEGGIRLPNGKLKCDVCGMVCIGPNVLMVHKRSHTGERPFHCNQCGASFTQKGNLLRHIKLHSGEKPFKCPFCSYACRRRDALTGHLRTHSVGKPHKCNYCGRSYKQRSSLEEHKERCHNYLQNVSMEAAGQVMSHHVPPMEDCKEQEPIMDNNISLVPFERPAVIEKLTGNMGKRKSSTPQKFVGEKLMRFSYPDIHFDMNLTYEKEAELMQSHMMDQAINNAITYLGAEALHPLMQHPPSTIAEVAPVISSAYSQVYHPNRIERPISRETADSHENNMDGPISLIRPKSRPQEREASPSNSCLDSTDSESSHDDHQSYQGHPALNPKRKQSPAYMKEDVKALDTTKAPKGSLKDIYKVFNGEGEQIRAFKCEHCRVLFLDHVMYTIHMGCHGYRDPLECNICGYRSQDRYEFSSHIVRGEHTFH
T5 sequence (P15170 whole entry, the tested form may be a part): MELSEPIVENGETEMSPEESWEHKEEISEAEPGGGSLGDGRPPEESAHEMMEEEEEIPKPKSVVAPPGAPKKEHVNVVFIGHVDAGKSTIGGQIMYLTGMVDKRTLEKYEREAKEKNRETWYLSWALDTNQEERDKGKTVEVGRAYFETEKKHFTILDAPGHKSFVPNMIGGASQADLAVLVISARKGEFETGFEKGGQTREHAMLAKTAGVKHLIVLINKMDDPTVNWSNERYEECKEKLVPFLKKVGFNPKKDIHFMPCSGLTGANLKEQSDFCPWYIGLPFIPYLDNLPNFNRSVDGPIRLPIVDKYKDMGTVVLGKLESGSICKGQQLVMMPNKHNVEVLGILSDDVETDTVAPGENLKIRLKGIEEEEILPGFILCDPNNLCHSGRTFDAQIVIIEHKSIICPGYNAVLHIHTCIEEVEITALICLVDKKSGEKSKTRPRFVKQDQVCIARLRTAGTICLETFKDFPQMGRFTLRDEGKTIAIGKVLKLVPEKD
T5 sequence (Q96SW2 whole entry, the tested form may be a part): as the sequence (Q96SW2 whole entry partner, the tested form may be a part) above
T5 sequence (Q16531 whole entry partner, the tested form may be a part): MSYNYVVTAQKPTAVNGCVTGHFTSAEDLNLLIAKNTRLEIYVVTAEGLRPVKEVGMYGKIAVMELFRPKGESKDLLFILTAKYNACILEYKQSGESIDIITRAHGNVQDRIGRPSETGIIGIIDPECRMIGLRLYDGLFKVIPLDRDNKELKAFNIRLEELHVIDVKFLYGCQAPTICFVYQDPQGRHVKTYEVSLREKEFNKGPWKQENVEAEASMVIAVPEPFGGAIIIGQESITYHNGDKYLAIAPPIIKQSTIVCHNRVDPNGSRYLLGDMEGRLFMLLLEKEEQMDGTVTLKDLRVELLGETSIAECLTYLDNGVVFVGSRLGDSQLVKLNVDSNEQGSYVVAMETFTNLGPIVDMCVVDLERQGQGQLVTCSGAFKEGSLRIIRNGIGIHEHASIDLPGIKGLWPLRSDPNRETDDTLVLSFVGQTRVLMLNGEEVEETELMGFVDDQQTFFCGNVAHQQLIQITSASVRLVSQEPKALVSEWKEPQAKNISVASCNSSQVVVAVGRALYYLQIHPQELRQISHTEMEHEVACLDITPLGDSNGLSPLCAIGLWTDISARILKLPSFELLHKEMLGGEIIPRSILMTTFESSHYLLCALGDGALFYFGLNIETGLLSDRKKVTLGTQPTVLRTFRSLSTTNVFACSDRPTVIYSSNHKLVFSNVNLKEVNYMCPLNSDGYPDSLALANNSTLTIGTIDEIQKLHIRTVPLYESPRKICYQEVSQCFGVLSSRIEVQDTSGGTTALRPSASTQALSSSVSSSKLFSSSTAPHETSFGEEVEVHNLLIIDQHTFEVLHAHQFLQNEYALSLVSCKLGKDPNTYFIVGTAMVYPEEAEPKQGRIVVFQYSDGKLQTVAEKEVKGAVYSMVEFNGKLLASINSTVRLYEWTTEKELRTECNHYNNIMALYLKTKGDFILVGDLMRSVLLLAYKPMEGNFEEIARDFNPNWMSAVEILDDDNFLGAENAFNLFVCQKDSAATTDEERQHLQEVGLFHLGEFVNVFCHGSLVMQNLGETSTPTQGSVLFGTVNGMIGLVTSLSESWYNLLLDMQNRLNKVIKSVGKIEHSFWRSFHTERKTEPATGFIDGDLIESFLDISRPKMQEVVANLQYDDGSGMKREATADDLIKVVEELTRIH
T1 sequence (Q9UKS7 whole entry): as the sequence (Q9UKS7 whole entry) above
T1 sequence (Q96SW2 whole entry): as the sequence (Q96SW2 whole entry partner, the tested form may be a part) above
T1 sequence (Q16531 whole entry partner): as the sequence (Q16531 whole entry partner, the tested form may be a part) above
T2 sequence (Q13422 whole entry): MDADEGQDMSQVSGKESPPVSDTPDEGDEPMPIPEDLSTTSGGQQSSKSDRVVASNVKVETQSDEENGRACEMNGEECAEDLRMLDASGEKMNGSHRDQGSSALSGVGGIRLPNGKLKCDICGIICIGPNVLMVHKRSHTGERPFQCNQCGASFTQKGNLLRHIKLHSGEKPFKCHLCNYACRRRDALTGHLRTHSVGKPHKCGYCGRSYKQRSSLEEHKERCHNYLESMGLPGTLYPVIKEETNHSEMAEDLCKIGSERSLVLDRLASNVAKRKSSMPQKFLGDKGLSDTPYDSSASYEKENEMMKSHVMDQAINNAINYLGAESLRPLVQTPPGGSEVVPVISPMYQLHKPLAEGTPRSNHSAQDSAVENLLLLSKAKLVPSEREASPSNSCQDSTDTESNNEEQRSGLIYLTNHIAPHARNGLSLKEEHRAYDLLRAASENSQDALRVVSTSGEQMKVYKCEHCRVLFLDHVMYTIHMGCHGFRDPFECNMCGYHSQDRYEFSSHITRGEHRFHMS
T2 sequence (Q96SW2 whole entry): as the sequence (Q96SW2 whole entry partner, the tested form may be a part) above
T2 sequence (Q16531 whole entry partner): as the sequence (Q16531 whole entry partner, the tested form may be a part) above

## Cc1ccc(NC(=O)NC(C)(C)c2cccc(NC3=CC(=O)N(C4CCC(=O)NC4=O)C3=O)c2)cc1Cl (stereo not drawn) [Compound 69, 1-(3-chloro-4-methylphenyl)-3-(2-(3-((1-(2,6-dioxopiperidin-3-yl)-2,5-dioxo-2,5-dihydro-1H-pyrrol-3-yl)amino)phenyl)propan-2-yl)urea]
[1]; Jurkat cells, 1 μM compound with 1 μM bortezomib, MLN4924 or carfilzomib, 4 h
  Helios degradation on co-treatment with proteasome or NAE inhibitor: Helios degradation is dependent on the proteasome
[1]; wildtype or Crbn−/− Jurkat cells, 4 h treatment
  Helios degradation (immunoblot): induced CRBN-dependent Helios degradation
[2]
  Ikaros degradation (immunoblot): did not affect the stability of GSPT1 or Ikaros
[3]; [12]
  IKZF1 GFP/RFP Relative Abundance: 0.086
[3]; [13]
  IKZF1 GFP/RFP Relative Abundance: 0.140
[3]; [14]
  IKZF1 GFP/RFP Relative Abundance: 0.132
[3]; [15]
  DC50: 14 nM
[4]; FIG. 1B, 2A, 5
  TR-FRET signal (520/490 ratio), CRBN-Helios dimerization, in words: induced higher TR-FRET signals than CC-885
[4]; compound concentration 6.6667E−05
  TR-FRET-IKZF2 (Normalized to CC-885): 2.037
[4]; compound concentration 6.6667E−06
  TR-FRET-IKZF2 (Normalized to CC-885): 1.970
[4]; compound concentration 6.6667E−07 (667 nM)
  TR-FRET-IKZF2 (Normalized to CC-885): 1.737
[5]
  DC50: > 1000 nM
[6]; [12]
  IKZF2 GFP/RFP Relative Abundance: 0.032
[6]; [13]
  IKZF2 GFP/RFP Relative Abundance: 0.013
[6]; [14]
  IKZF2 GFP/RFP Relative Abundance: 0.028
[6]; [15]
  DC50: 3.6 nM
[7]
  GSPT1 stability (immunoblot): did not affect the stability of GSPT1 or Ikaros
[8]
  Ikaros degradation in regulatory T cells (flow cytometry): not Ikaros
[9]
  Helios degradation in regulatory T cells (flow cytometry): capable of inducing degradation of Helios
[10]
  Helios degradation in isolated Tregs: able to induce degradation of Helios in Tregs
[11]
  IFNγ production: increased production of IFNγ upon restimulation
